In US6737383B1, “Herbicidal oxadiazolidines” (priority 1999, dated 2004):

Legend:
[1] = system: giant foxtail; assay: Test B pre/postemergence giant foxtail; assay type: in vivo, Setaria faberii; details: Preemergence, scale of 0 to 10 where 0 is no effect and 10 is complete control
How it was run: (§1)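 Test chemicals in a non-phytotoxic solvent mixture with surfactant were sprayed preemergence onto planted seeds and postemergence onto plants 2 to 18 cm tall (1- to 4-leaf stage). After twelve to sixteen days in a greenhouse, injury was visually rated against untreated controls from 0 (no effect) to 10 (complete control).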

[2] = system: surinam grass; assay: Test B pre/postemergence surinam grass; assay type: in vivo, Brachiaria decumbens; details: Preemergence
How it was run: as §1

[3] = system: pigweed; assay: Test B pre/postemergence pigweed; assay type: in vivo, Amaranthus retroflexus; details: Preemergence, scale of 0 to 10 where 0 is no effect and 10 is complete control
How it was run: as §1

[4] = system: wild oat; assay: Test B pre/postemergence wild oat; assay type: in vivo, Avena fatua; details: Preemergence, scale of 0 to 10 where 0 is no effect and 10 is complete control
How it was run: as §1

[5] = system: bedstraw; assay: Test B pre/postemergence bedstraw; assay type: in vivo, Galium aparine; details: Preemergence
How it was run: as §1

[6] = system: crabgrass; assay: Test B pre/postemergence crabgrass; assay type: in vivo, Digitaria sanguinalis; details: Preemergence
How it was run: as §1

[7] = system: cocklebur; assay: Test B pre/postemergence cocklebur; assay type: in vivo, Xanthium strumarium; details: Preemergence
How it was run: as §1

[8] = system: velvetleaf; assay: Test B pre/postemergence velvetleaf; assay type: in vivo, Abutilon theophrasti; details: Preemergence, scale of 0 to 10 where 0 is no effect and 10 is complete control
How it was run: as §1

[9] = system: sugar beet; assay: Test B pre/postemergence sugar beet; assay type: in vivo, Beta vulgaris; details: Preemergence, scale of 0 to 10 where 0 is no effect and 10 is complete control
How it was run: as §1

[10] = system: morningglory; assay: Test B pre/postemergence morningglory; assay type: in vivo, Ipomoea hederacea; details: Preemergence, scale of 0 to 10 where 0 is no effect and 10 is complete control
How it was run: as §1

[11] = system: rape; assay: Test B pre/postemergence rape; assay type: in vivo, Brassica napus; details: Preemergence, scale of 0 to 10 where 0 is no effect and 10 is complete control
How it was run: as §1

[12] = system: soybean; assay: Test B pre/postemergence soybean; assay type: in vivo, Glycine max; details: Preemergence, scale of 0 to 10 where 0 is no effect and 10 is complete control
How it was run: as §1

[13] = system: purple nutsedge; assay: Test B pre/postemergence purple nutsedge; assay type: in vivo, Cyperus rotundus; details: Preemergence, scale of 0 to 10 where 0 is no effect and 10 is complete control
How it was run: as §1

[14] = system: blackgrass; assay: Test B pre/postemergence blackgrass; assay type: in vivo, Alopecurus myosuroides; details: Preemergence
How it was run: as §1

[15] = system: corn; assay: Test B pre/postemergence corn; assay type: in vivo, Zea mays; details: Preemergence
How it was run: as §1

[16] = system: wheat; assay: Test B pre/postemergence wheat; assay type: in vivo, Triticum aestivum; details: Preemergence, scale of 0 to 10 where 0 is no effect and 10 is complete control
How it was run: as §1

[17] = Rate 62 g/ha, scale of 0 to 10 where 0 is no effect and 10 is complete control
[18] = Rate 125 g/ha, scale of 0 to 10 where 0 is no effect and 10 is complete control
[19] = Rate 250 g/ha, scale 0 to 10 (0 no effect, 10 complete control)
[20] = Rate 500 g/ha, scale of 0 to 10 where 0 is no effect and 10 is complete control

## CCn1ncc(Cn2c(=O)on(C(=O)N(c3ccccc3)C(C)C)c2=O)c1Cl [Compound 683]
[1]; Rate 62 g/ha
  Giant foxtail plant response rating: 8
[1]; Rate 125 g/ha
  Plant response rating, Giant foxtail: 9
[1]; Rate 500 g/ha
  Plant response rating, Giant foxtail: 10
[2]; [17]
  B. signalgrass plant response rating: 0
[2]; [18]
  Plant response rating, B. signalgrass: 0
[2]; [19]
  Plant response rating, B. signalgrass: 4
[2]; [20]
  Plant response rating, B. signalgrass: 9
[3]; Rate 62 g/ha
  Redroot pigweed plant response rating: 0
[3]; Rate 125 g/ha
  Plant response rating, Redroot pigweed: 2
[3]; Rate 500 g/ha
  Plant response rating, Redroot pigweed: 6
[4]; Rate 62 g/ha
  Wild oats plant response rating: 0
[4]; Rate 125 g/ha
  Plant response rating, Wild oats: 0
[4]; Rate 500 g/ha
  Plant response rating, Wild oats: 8
[5]; [17]
  Bedstraw plant response rating: 0
[5]; [18]
  Plant response rating, Bedstraw: 0
[5]; [19]
  Plant response rating, Bedstraw: 0
[5]; [20]
  Plant response rating, Bedstraw: 0
[6]; [17]
  Crabgrass plant response rating: 6
[6]; [18]
  Plant response rating, Crabgrass: 8
[6]; [19]
  Plant response rating, Crabgrass: 9
[6]; [20]
  Plant response rating, Crabgrass: 10
[7]; [17]
  Cocklebur plant response rating: 0
[7]; [18]
  Plant response rating, Cocklebur: 0
[7]; [19]
  Plant response rating, Cocklebur: 0
[7]; [20]
  Plant response rating, Cocklebur: 0
[8]; Rate 62 g/ha
  Velvetleaf plant response rating: 0
[8]; Rate 125 g/ha
  Plant response rating, Velvetleaf: 0
[8]; Rate 500 g/ha
  Plant response rating, Velvetleaf: 0
[9]; Rate 62 g/ha
  Sugarbeets plant response rating: 0
[9]; Rate 125 g/ha
  Plant response rating, Sugarbeets: 0
[9]; Rate 500 g/ha
  Plant response rating, Sugarbeets: 0
[10]; Rate 62 g/ha
  Morningglory plant response rating: 0
[10]; Rate 125 g/ha
  Plant response rating, Morningglory: 0
[10]; Rate 500 g/ha
  Plant response rating, Morningglory: 2
[11]; Rate 62 g/ha
  Rape plant response rating: 0
[11]; Rate 125 g/ha
  Plant response rating, Rape: 0
[11]; Rate 500 g/ha
  Plant response rating, Rape: 0
[12]; Rate 62 g/ha
  Soybean plant response rating: 0
[12]; Rate 125 g/ha
  Plant response rating, Soybean: 0
[12]; Rate 500 g/ha
  Plant response rating, Soybean: 0
[13]; Rate 62 g/ha
  Nutsedge plant response rating: 0
[13]; Rate 125 g/ha
  Plant response rating, Nutsedge: 0
[13]; Rate 500 g/ha
  Plant response rating, Nutsedge: 0
[14]; [17]
  Blackgrass plant response rating: 1
[14]; [18]
  Plant response rating, Blackgrass: 3
[14]; [19]
  Plant response rating, Blackgrass: 7
[14]; [20]
  Plant response rating, Blackgrass: 9
[15]; [17]
  Corn plant response rating: 0
[15]; [18]
  Plant response rating, Corn: 0
[15]; [19]
  Plant response rating, Corn: 0
[15]; [20]
  Plant response rating, Corn: 3
[16]; Rate 62 g/ha
  Wheat plant response rating: 0
[16]; Rate 125 g/ha
  Plant response rating, Wheat: 0
[16]; Rate 500 g/ha
  Plant response rating, Wheat: 0
